Patent US8633245B2, “PAI-1 inhibitor” (Institute of Medicinal Molecular Design, Inc., priority 2008, dated 2014)

What was measured:
Type in all cases: biochemical
recombinant rat PAI-1 = target: T1, recombinant rat PAI-1 (Rattus norvegicus, UniProt P20961); test: Test Example 3: rat PAI-1 inhibitory activity (as Test Example 2 with rat PAI-1); conditions: for IC50 / Inhibition Rate of PAI-1 Activity (%): rat PAI-1; for IC50: calculated from the inhibition rates
T1 construct: purchased Molecular Innovations, Inc
T1 sequence (P20961 24-402): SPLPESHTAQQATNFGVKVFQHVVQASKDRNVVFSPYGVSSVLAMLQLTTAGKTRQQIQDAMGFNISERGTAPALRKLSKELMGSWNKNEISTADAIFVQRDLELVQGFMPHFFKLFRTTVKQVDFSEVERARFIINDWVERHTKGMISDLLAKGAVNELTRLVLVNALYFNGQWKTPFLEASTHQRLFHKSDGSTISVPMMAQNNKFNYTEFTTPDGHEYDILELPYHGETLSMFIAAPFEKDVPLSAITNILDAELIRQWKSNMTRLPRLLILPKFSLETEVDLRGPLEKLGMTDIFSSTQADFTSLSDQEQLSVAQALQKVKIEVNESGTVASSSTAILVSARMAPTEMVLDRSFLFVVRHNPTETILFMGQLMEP
Description: To this solution, 6 μl of 80 nM recombinant human PAI-1 (Molecular Innovations, Inc.) solution prepared with Tris buffer was added, and the plate was incubated for 5 minutes at room temperature. Furthermore, 30 μl of 800 IU/ml two-chain tPA (Activity Standard; American diagnostica, inc.) prepared with Tris buffer was added, and the mixed solution was incubated for 15 minutes at room temperature. Then, 30 μl of 400 μM fluorogenic substrate (Pyr-Gly-Arg-MCA; Peptide Institute, Inc.) for tPA prepared with Tris buffer was added and reacted for 30 minutes at room temperature.

recombinant human PAI-1 [1] = target: T2, recombinant human PAI-1 (Homo sapiens, UniProt P05121); test: Test Example 2: human PAI-1 inhibitory activity (tPA fluorogenic substrate, pH 7.4 HEPES buffer); conditions: for IC50: human PAI-1, calculated from the inhibition rates; for Inhibition Rate of PAI-1 Activity (%): HEPES buffer; for inhibition at 3 µM: read-out: Inhibition Rate of PAI-1 Activity (%)
T2 construct: purchased Molecular Innovations, Inc
T2 sequence (P05121 24-402): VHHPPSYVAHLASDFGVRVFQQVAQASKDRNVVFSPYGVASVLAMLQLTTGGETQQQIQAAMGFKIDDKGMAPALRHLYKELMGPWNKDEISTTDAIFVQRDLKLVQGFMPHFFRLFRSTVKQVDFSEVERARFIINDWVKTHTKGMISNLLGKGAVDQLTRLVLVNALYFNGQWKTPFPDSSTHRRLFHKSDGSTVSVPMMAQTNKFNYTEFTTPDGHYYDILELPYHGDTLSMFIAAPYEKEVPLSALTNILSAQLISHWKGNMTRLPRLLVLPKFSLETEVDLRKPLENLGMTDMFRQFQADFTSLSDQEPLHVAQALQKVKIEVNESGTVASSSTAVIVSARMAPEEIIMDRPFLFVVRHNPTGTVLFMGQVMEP
Description: 0.1 M HEPES, 0.1 M NaCl. 1 mM EDTA. 0.1% Polyethylene glycol 8,000 (Hampton Research Corporation),
2 mM Dimethyldecylphoshine oxide [Apo-10] (Fluka Corporation)

recombinant human PAI-1 [2] = target: T2, recombinant human PAI-1; test: Test Example 1: human PAI-1 inhibitory activity (tPA fluorogenic substrate, pH 7.5 Tris buffer); conditions: Tris buffer
Description: 50 mM Tris, 150 mM NaCl, 10 μg/ml BSA, 0.01% Tween80 (SIGMA-ALDRICH Corporation)

Row | IC50 (recombinant rat PAI-1) | IC50 (recombinant human PAI-1 [1]) | Inhibition Rate of PAI-1 Activity (%) (recombinant human PAI-1 [2]; Compound Concentration 5 μM) | Inhibition Rate of PAI-1 Activity (%) (recombinant human PAI-1 [2]; Compound Concentration 10 μM) | Inhibition Rate of PAI-1 Activity (%) (recombinant human PAI-1 [2]; Compound Concentration 25 μM) | Compound | also measured
1 | 1950 nM | 1110 nM |  |  |  | CCCCOc1ccc(N(CCCCc2ccccc2)C(=O)C(=O)O)cc1-c1ccc(OC(F)(F)F)cc1 [Compound 227] | 
2 | 2300 nM | 1340 nM |  |  |  | CC(C)(C)c1ccc(Oc2ccc(Oc3ccc(OC(F)(F)F)cc3)cc2CCC(=O)O)cc1 [Compound 100] | 
3 |  |  | 78% | 95% |  | CC(C)(C)c1ccc(CN(C(=O)C(=O)O)c2ccc(OCc3ccccc3)c(-c3ccc(OC(F)(F)F)cc3)c2)cc1 [Compound 212] | Inhibition Rate of PAI-1 Activity (%) (recombinant rat PAI-1; compound concentration 0.3 μM): 8%; Inhibition Rate of PAI-1 Activity (%) (recombinant rat PAI-1; compound concentration 1 μM): 40%; Inhibition Rate of PAI-1 Activity (%) (recombinant rat PAI-1; compound concentration 3 μM): 73%; Inhibition Rate of PAI-1 Activity (%) (recombinant rat PAI-1; compound concentration 10 μM): 67%; Inhibition Rate of PAI-1 Activity (%) (recombinant human PAI-1 [1]; Compound Concentration 0.1 μM): 5%; Inhibition Rate of PAI-1 Activity (%) (recombinant human PAI-1 [1]; Compound Concentration 0.3 μM): 15%; Inhibition Rate of PAI-1 Activity (%) (recombinant human PAI-1 [1]; Compound Concentration 1 μM): 64%; Inhibition Rate of PAI-1 Activity (%) (recombinant human PAI-1 [1]; Compound Concentration 3 μM): 98%
4 |  |  | 29% | 70% | >99% | CCCCc1ccc(COc2ccc(-c3ccc(OC(F)(F)F)cc3)cc2CCC(=O)O)cc1 [Compound 30] | Inhibition Rate of PAI-1 Activity (%) (recombinant rat PAI-1; compound concentration 0.3 μM): 0%; Inhibition Rate of PAI-1 Activity (%) (recombinant rat PAI-1; compound concentration 1 μM): 5%; Inhibition Rate of PAI-1 Activity (%) (recombinant rat PAI-1; compound concentration 3 μM): 47%; Inhibition Rate of PAI-1 Activity (%) (recombinant rat PAI-1; compound concentration 10 μM): 89%; Inhibition Rate of PAI-1 Activity (%) (recombinant human PAI-1 [1]; Compound Concentration 0.1 μM): 0%; Inhibition Rate of PAI-1 Activity (%) (recombinant human PAI-1 [1]; Compound Concentration 0.3 μM): 5%; Inhibition Rate of PAI-1 Activity (%) (recombinant human PAI-1 [1]; Compound Concentration 1 μM): 25%; Inhibition Rate of PAI-1 Activity (%) (recombinant human PAI-1 [1]; Compound Concentration 3 μM): 92%
5 | 5210 nM | 1540 nM |  |  |  | CC(C)(C)c1ccc(COc2cccc(Oc3ccc(OC(F)(F)F)cc3)c2CCC(=O)O)cc1 [Compound 86] | 
6 | 2880 nM | 1160 nM |  |  |  | CC(C)(C)c1ccc(COc2cc(-c3ccc(OC(F)(F)F)cc3)ccc2CCC(=O)O)cc1 [Compound 76] | 
7 | 2650 nM | 1350 nM |  |  |  | CC(C)(C)c1ccc(Oc2cc(Oc3ccc(OC(F)(F)F)cc3)ccc2CCC(=O)O)cc1 [Compound 90] | 
8 | 3530 nM | 1540 nM |  |  |  | O=C(O)CCc1c(Oc2ccc(OC(F)(F)F)cc2)cccc1Oc1ccc(OC(F)(F)F)cc1 [Compound 98] | 
9 |  |  | 62% | 92% | 88% | CC(C)(C)c1ccc(CN(C(=O)C(=O)O)c2ccc(Cl)c(OCc3ccc(OC(F)(F)F)cc3)c2)cc1 [Compound 629] | 
10 |  |  | 58% | 89% |  | CC(C)(C)c1ccc(N(C(=O)C(=O)O)c2ccc(-c3ccc(OC(F)(F)F)cc3)cc2)cc1 [Compound 128] | 
11 |  |  | 35% | 80% | 90% | CC(C)(C)c1ccc(CN(C(=O)C(=O)O)c2ccc(-c3ccc(OC(F)(F)F)cc3)cc2OC(F)(F)F)cc1 [Compound 151] | 
12 |  |  | 56% | 88% | 88% | Cc1cc(-c2ccc(OC(F)(F)F)cc2)cc(N(Cc2ccc(C(C)(C)C)cc2)C(=O)C(=O)O)c1 [Compound 178] | 
13 |  |  | 44% | 81% | 96% | CC(C)(C)c1ccc(COc2c(/C=C/C(=O)O)cccc2-c2ccc(OC(F)(F)F)cc2)cc1 [Compound 87] | 
14 |  |  | 37% | 75% | 87% | CCCCc1ccc(CN(C(=O)C(=O)O)c2ccc(-c3ccc(OC(F)(F)F)cc3)cc2)cc1 [Compound 167] | 
15 |  |  | 81% | 98% | 94% | CC(C)Oc1ccc(N(Cc2ccc(C(C)(C)C)cc2)C(=O)C(=O)O)c(-c2ccc(OC(F)(F)F)cc2)c1 [Compound 209] | 
16 |  |  | 42% | 64% | 89% | O=C(O)C(=O)N(CCCCc1ccccc1)c1ccc(N2CCOCC2)c(-c2ccc(OC(F)(F)F)cc2)c1 [Compound 243] | 

Row | Compound | IC50 (recombinant rat PAI-1) | IC50 (recombinant human PAI-1 [1]) | Inhibition Rate of PAI-1 Activity (%) (recombinant human PAI-1 [2]; Compound Concentration 5 μM) | Inhibition Rate of PAI-1 Activity (%) (recombinant human PAI-1 [2]; Compound Concentration 10 μM) | Inhibition Rate of PAI-1 Activity (%) (recombinant human PAI-1 [2]; Compound Concentration 25 μM) | also measured
17 | CCCCC(c1ccc(C(C)(C)C)cc1)N(C(=O)C(=O)O)c1ccc(-c2ccc(OC(F)(F)F)cc2)cc1 (centres unmarked) [Compound 221] | 1270 nM | 930 nM |  |  |  | inhibition at 3 µM (recombinant human PAI-1 [1]): > 99%
18 | CC(C)(C)c1ccc(COc2c(OCC(=O)O)cccc2-c2ccc(OC(F)(F)F)cc2)cc1 [Compound 117] | 2480 nM | 1040 nM |  |  |  | inhibition at 3 µM (recombinant human PAI-1 [1]): > 99%
19 | CCCCCOc1ccc(-c2ccc(OC(F)(F)F)cc2)cc1N(CCCCc1ccccc1)C(=O)C(=O)O [Compound 226] | 1000 nM | 510 nM |  |  |  | inhibition at 10 µM (recombinant rat PAI-1; read-out: Inhibition Rate of PAI-1 Activity (%)): > 99%
